# According to US20220218707A1, “USE OF COMPOSITION OF IMATINIB OR DERIVATIVE THEREOF IN PREPARATION OF DRUG FOR PREVENTING, TREATING, AND CONTROLLING ADDICTION RELAPSE” (Wuhan University, priority 2019, published 2022):
# Where a name gives a salt, the structure may show the parent alone. Read-outs that look alike come from different tables or passages of the source.
# What was measured:
# c-Kit [1] = molecular target: T1, c-Kit (Rattus norvegicus, UniProt F7EWK5); conditions: acute ethanol administration
# T1 sequence (F7EWK5 26-978): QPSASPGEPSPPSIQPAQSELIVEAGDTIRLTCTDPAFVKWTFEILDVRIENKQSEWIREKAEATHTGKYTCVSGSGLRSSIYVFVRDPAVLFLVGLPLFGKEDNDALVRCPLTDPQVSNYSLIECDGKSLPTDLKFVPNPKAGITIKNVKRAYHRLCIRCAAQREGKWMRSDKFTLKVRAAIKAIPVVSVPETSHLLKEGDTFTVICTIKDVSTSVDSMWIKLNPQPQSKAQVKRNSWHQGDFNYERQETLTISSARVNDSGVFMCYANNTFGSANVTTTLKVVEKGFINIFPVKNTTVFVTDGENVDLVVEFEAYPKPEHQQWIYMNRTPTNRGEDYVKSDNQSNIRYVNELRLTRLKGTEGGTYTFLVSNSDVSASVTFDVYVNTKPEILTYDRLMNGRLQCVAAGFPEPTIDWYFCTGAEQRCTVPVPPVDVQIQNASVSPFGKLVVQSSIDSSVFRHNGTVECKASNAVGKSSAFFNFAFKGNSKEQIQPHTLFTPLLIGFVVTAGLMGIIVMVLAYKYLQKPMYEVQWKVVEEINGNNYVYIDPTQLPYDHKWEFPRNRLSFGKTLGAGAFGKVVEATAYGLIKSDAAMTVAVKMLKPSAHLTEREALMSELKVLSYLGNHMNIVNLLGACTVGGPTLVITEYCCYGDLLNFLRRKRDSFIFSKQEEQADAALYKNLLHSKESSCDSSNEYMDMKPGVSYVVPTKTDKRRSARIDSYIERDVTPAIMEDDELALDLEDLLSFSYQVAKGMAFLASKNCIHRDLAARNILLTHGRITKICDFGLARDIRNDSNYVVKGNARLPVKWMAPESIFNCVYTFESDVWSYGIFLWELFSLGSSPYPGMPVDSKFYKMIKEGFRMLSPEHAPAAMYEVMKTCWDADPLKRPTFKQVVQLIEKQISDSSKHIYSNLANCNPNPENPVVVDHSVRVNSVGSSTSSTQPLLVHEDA
# SD rats [2] = assay: Ethanol sensitization model; type: in vivo; conditions: imatinib mesylate 15, 20, or 30 mg/kg
# SD rats [3] = test system: SD rats
# SD rats [4] = conditions: for morphine tolerance and heat pain threshold in CFA rats: day 6 after model establishment
# SD rats [5] = assay: Morphine sensitization model (spontaneous activity); type: in vivo
# SD rats [6] = test system: SD rats; remark: listed apart in the source
# From the text: Groups: A total of 14 groups (n=10) were included.
# The rest process was the same as that in Example 3.
# SD rats [7] = assay: Nicotine withdrawal symptoms (spontaneous activity); type: in vivo
# From the text: Test instrument: Conditional place preference (CPP) test apparatus (the same as that in Example 19); and spontaneous activity detecting apparatus (developed by the Institute of Chinese Materia Medica, China Academy of Chinese Medical Sciences). The test was automatically controlled by a computer. The apparatus includes four spontaneous activity observation chamber, a video synthesizer, a video pattern sampling card, and analysis software. The system performs video tracking of the rat activity and automatically records the rat activity track and activity times. The spontaneous activity evaluation index is the total activity times in a certain period of time (such as 60 min), and an increase in the total activity times indicates an increase in spontaneous activity. […] In addition, a physiological saline+physiological saline group without nicotine treatment was used as the control group. […] After 60 min, a spontaneous activity detecting apparatus was used to detect the spontaneous activities.
# SD rats [8] = test system: SD rats; remark: listed apart in the source
# SD rats [9] = conditions: imatinib mesylate 1, 5, 10, 20, and 30 mg/kg i.p.
# SD rats [10] = test system: SD rats; remark: listed apart in the source
# SD rats [11] = test system: SD rats; remark: listed apart in the source
# SD rats [12] = conditions: imatinib mesylate 1, 5, 10, 20, or 30 mg/kg i.p.
# SD rats [13] = conditions: direct administration; any dose of imatinib mesylate
# SD rats [14] = conditions: for drug-seeking behavior and relapse after cocaine addiction: imatinib mesylate 20 and 30 mg/kg
# [15] = Naloxone-precipitated withdrawal symptoms after morphine-induced CPP (jump times, body weight); conditions: imatinib mesylate 15, 30, and 45 mg/kg with morphine 5 mg/kg, naloxone 2 mg/kg s.c.; combination or compound preparation
# SD rats [16] = test system: SD rats; remark: listed apart in the source
# SD rats [17] = assay: Development of high-sugar and high-fat food-induced CPP; type: in vivo
# c-Kit [18] = molecular target: T1, c-Kit; conditions: acute morphine 10 mg/kg s.c.; not in other brain regions
# c-Kit [19] = molecular target: T1, c-Kit; conditions: acute nicotine 0.5 mg/kg s.c.; not in other brain regions
# [20] = imatinib mesylate 1, 5, and 10 mg/kg, ethanol 0.75 g/kg for training CPP
# [21] = imatinib mesylate 1 and 5 mg/kg, ethanol 0.5 g/kg for training CPP
# [22] = imatinib mesylate 10, 15, 20, and 30 mg/kg, ethanol 0.5 g/kg for training CPP
# [23] = imatinib mesylate 15, 20, and 30 mg/kg, ethanol 0.75 g/kg for training CPP
compound,measurement,setting,value
CCO [ethanol],activation of c-kit receptor in neurons in nucleus accumbens,c-Kit [1],specifically activated
Cc1ccc(NC(=O)c2ccc(CN3CCN(C)CC3)cc2)cc1Nc1nccc(-c2cccnc2)n1 [imatinib mesylate],development of ethanol sensitization,SD rats [2]; ethanol 0.75 g/kg for 5 consecutive days,the development of ethanol sensitization in rats is inhibited
same,expression of ethanol sensitization,SD rats [2]; ethanol challenge on day 11,the expression of ethanol sensitization in rats is inhibited
same,priming (relapse) after challenge with a small dose of ethanol,SD rats [3]; direct administration of imatinib mesylate,are all primed
same,"CPP after ethanol addiction, all treatment groups","SD rats [3]; imatinib mesylate 15 and 30 mg/kg, ethanol 0.75 g/kg for training CPP",can significantly reduce the CPP
same,drug-seeking behavior and relapse after ethanol addiction,"SD rats [3]; unconditioned stimulus ethanol 0.5 g/kg, imatinib mesylate 20 and 30 mg/kg","can only inhibit the drug-seeking behavior, and cannot prevent relapse"
same,morphine tolerance and heat pain threshold in CFA rats,"SD rats [4]; imatinib mesylate 1, 5, and 10 mg/kg",have no this effect
same,morphine tolerance and heat pain threshold in CFA rats,SD rats [4]; imatinib mesylate 20 and 30 mg/kg,can significantly prevent the development of morphine tolerance
same,"heat pain threshold, imatinib mesylate+morphine compared with morphine+physiological saline","SD rats [4]; days 4 and 5 after model establishment, morphine 10 mg/kg s.c.",no obvious change
same,expression of morphine sensitization,SD rats [5]; imatinib mesylate 30 mg/kg i.p. on day 11 before morphine 5 mg/kg challenge,the expression of morphine sensitization in rats is inhibited
same,development of morphine sensitization,SD rats [5]; imatinib mesylate 30 mg/kg with morphine 10 mg/kg for 5 consecutive days,the development of morphine sensitization in rats is inhibited
same,CPP (drug-seeking behavior) after ethanol addiction,SD rats [6]; [20],no obvious effect
same,CPP (drug-seeking behavior) after ethanol addiction,SD rats [6]; [21],no obvious effect
same,CPP (drug-seeking behavior) after ethanol addiction,SD rats [6]; [22],can significantly relieve CPP and prevent it from being primed
same,CPP (drug-seeking behavior) after ethanol addiction,SD rats [6]; [23],can significantly relieve CPP and prevent it from being primed
same,nicotine withdrawal symptoms (spontaneous activities),"SD rats [7]; imatinib mesylate 10, 20, and 30 mg/kg, addiction trained by 0.25 mg/kg of nicotine",can differently alleviate the withdrawal symptoms
same,nicotine withdrawal symptoms (spontaneous activities),"SD rats [7]; imatinib mesylate 20 and 30 mg/kg, addiction trained by 0.5 mg/kg of nicotine",can alleviate the withdrawal symptoms
same,development of ethanol-induced CPP,SD rats [8]; [20],no significant effect on the development of CPP
same,development of ethanol-induced CPP,SD rats [8]; [21],no significant effect on the development of CPP
same,development of ethanol-induced CPP,SD rats [8]; [22],can significantly relieve CPP
same,development of ethanol-induced CPP,SD rats [8]; [23],can significantly relieve CPP
same,"HPT, imatinib mesylate+physiological saline compared with physiological saline+physiological saline",SD rats [9],no obvious change
same,"heat pain threshold, imatinib mesylate+morphine compared with morphine+physiological saline",SD rats [9]; morphine 10 mg/kg s.c.,no obvious change
same,morphine tolerance (heat pain threshold),"SD rats [10]; 1, 5, and 10 mg/kg i.p., morphine 10 mg/kg s.c.",do not have this inhibitory effect
same,morphine tolerance (heat pain threshold),"SD rats [10]; 20 and 30 mg/kg i.p., morphine 10 mg/kg s.c.",can prevent the development of CPP
same,morphine tolerance (heat pain threshold),"SD rats [10]; 20 and 30 mg/kg i.p., morphine 10 mg/kg s.c., listed as Imatinib sulfonate",can significantly reduce the expression of morphine-induced tolerance
same,minimum dose of imatinib mesylate preventing morphine tolerance,SD rats [10]; dose ratio to morphine 2:1 or greater,10 mg/kg
same,morphine tolerance (heat pain threshold),"SD rats [10]; imatinib mesylate 10, 20, and 30 mg/kg, tolerance induced by 5 mg/kg morphine",can prevent the development of morphine tolerance
same,treatment and prevention of morphine tolerance,"SD rats [10]; low dose of 5 mg/kg, rats",can be used in the treatment and prevention of morphine tolerance in rats
same,CPP (drug-seeking behavior) after morphine addiction,"SD rats [11]; imatinib mesylate 1, 5, and 10 mg/kg i.p., morphine 10 mg/kg for training CPP",no obvious effect
same,CPP (drug-seeking behavior) after morphine addiction,"SD rats [11]; imatinib mesylate 1 and 5 mg/kg i.p., morphine 5 mg/kg for training CPP",no obvious effect
same,CPP (drug-seeking behavior) after morphine addiction,"SD rats [11]; imatinib mesylate 10, 20, and 30 mg/kg i.p., morphine 5 mg/kg for training CPP",can significantly relieve CPP and prevent it from being primed
same,CPP (drug-seeking behavior) after morphine addiction,"SD rats [11]; imatinib mesylate 20 and 30 mg/kg i.p., morphine 10 mg/kg for training CPP",can significantly relieve CPP and prevent it from being primed
same,"hind paw licking time, imatinib mesylate+physiological saline compared with physiological saline+physiological saline",SD rats [12],no obvious changes
same,"hind paw licking time, imatinib mesylate+morphine compared with morphine+physiological saline",SD rats [12]; morphine 10 mg/kg s.c.,no obvious changes
same,gambling behavior (choice),SD rats [13],no significant effect
same,priming (relapse) after cocaine addiction,SD rats [14]; direct administration of imatinib mesylate 20 and 30 mg/kg,the rats are still primed
same,drug-seeking behavior and relapse after cocaine addiction,SD rats [14]; unconditioned stimulus cocaine 3 mg/kg,can prevent the drug-seeking behavior and relapse
same,drug-seeking behavior and relapse after cocaine addiction,SD rats [14]; unconditioned stimulus cocaine 4 mg/kg,"can only inhibit the drug-seeking behavior, and cannot prevent relapse"
same,"morphine withdrawal symptoms (jump times, changes in body weight)",[15],can alleviate the withdrawal symptoms
same,priming with high-sugar and high-fat food after 1 week,"SD rats [16]; direct administration, all doses of imatinib mesylate",cannot prevent the rats from being primed
same,food-seeking behavior (CPP),"SD rats [16]; imatinib mesylate 10, 20, and 30 mg/kg, substance cue, environmental cue or direct administration",can inhibit the food-seeking behavior
same,development of addiction to high-sugar and high-fat food (CPP),"SD rats [17]; imatinib mesylate 1, 5, and 10 mg/kg i.p.",no significant effect on the development of addiction to high-sugar and high-fat food
same,development of addiction to high-sugar and high-fat food (CPP),SD rats [17]; imatinib mesylate 20 and 30 mg/kg i.p.,can significantly inhibit the development of addiction to high-sugar and high-fat food
CNC1(C)C2CCC(C2)C1(C)C (centres unmarked) [mecamylamine],spontaneous activities of rats with nicotine addiction,"SD rats [7]; mecamylamine 0.5 mg/kg, withdrawal symptoms aroused",the spontaneous activities decreases significantly
CN1CC[C@]23c4c5ccc(O)c4O[C@H]2[C@@H](O)C=C[C@H]3[C@H]1C5 [morphine],activation of c-kit receptor and downstream signaling molecules in neurons in nucleus accumbens,c-Kit [18],specifically activated
CN1CCCC1c1cccnc1 (centres unmarked) [nicotine],activation of c-kit receptor and downstream signaling molecules in neurons in nucleus accumbens,c-Kit [19],specifically activated
